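Values below derive from 48-hour exposures of cells grown in 96-well plates, with endpoints linearly interpolated between the two concentrations bracketing the appropriate inhibition level. At the GI50, growth is halved. Definition used: TGI = concentration required for complete inhibition of growth.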
Legend:
Assay in all cases: growth of human tumour cells (NCI), 48 h
[1] = tested on: ACHN renal
[2] = tested on: CAKI-1 renal
[3] = tested on: HT29 colon
[4] = tested on: MALME-3M melanoma
[5] = tested on: NCI-H522 lung
[6] = tested on: OVCAR-4 ovarian
[7] = tested on: RPMI-8226 leukemia
[8] = tested on: SK-MEL-5 melanoma
[9] = tested on: UACC-257 melanoma
[10] = tested on: UO-31 renal

SMILES: COc1cc2c3c(n(CCCN)c(=O)c2cc1OC)-c1ccc(C#N)cc1C3=O
- GI50 [1]: 14.9 µM
- TGI [1]: 28.5 µM
- GI50 [2]: 34.9 µM
- TGI [2]: > 100 µM
- GI50 [3]: 8.52 µM
- TGI [3]: 29.1 µM
- GI50 [4]: 18.9 µM
- TGI [4]: 73.3 µM
- GI50 [5]: 9.61 µM
- TGI [5]: > 100 µM
- GI50 [6]: 20 µM
- TGI [6]: 41.3 µM
- GI50 [7]: 19.1 µM
- TGI [7]: 41.5 µM
- GI50 [8]: 16.4 µM
- TGI [8]: 32.6 µM
- GI50 [9]: 28.5 µM
- TGI [9]: > 100 µM
- GI50 [10]: 19.1 µM
- TGI [10]: 71.2 µM

SMILES: CN1CCN(CCCNc2nc3ccc(Oc4ccc(NC(=O)Nc5cc(C(F)(F)F)ccc5F)cc4)cc3[nH]2)CC1
- GI50 [1]: 17.5 µM
- TGI [1]: > 25 µM
- GI50 [2]: > 25 µM
- TGI [2]: > 25 µM
- GI50 [3]: 4.09 µM
- TGI [3]: 7.93 µM
- GI50 [4]: 4.69 µM
- TGI [4]: 9.67 µM
- GI50 [5]: 3.8 µM
- TGI [5]: 7.27 µM
- GI50 [6]: 5.88 µM
- TGI [6]: > 19.5 µM
- GI50 [7]: 5.88 µM
- TGI [7]: 14 µM
- GI50 [8]: 3.66 µM
- TGI [8]: 7.01 µM
- GI50 [9]: 4.02 µM
- TGI [9]: 7.93 µM
- GI50 [10]: > 25 µM
- TGI [10]: > 25 µM

SMILES: NS(=O)(=O)c1ccc(-c2ccc3c(NC(=O)C4CC4)n[nH]c3c2)cc1
- GI50 [1]: > 25 µM
- TGI [1]: > 25 µM
- GI50 [2]: > 25 µM
- TGI [2]: > 25 µM
- GI50 [3]: > 25 µM
- TGI [3]: > 25 µM
- GI50 [4]: > 25 µM
- TGI [4]: > 25 µM
- GI50 [5]: > 25 µM
- TGI [5]: > 25 µM
- GI50 [6]: > 25 µM
- TGI [6]: > 25 µM
- GI50 [7]: > 25 µM
- TGI [7]: > 25 µM
- GI50 [8]: > 25 µM
- TGI [8]: > 25 µM
- GI50 [9]: > 25 µM
- TGI [9]: > 25 µM
- GI50 [10]: > 25 µM
- TGI [10]: > 25 µM

SMILES: CN(C)CCNc1ccc(CO)c2oc3ccc(O)cc3c(=O)c12
- TGI [1]: 44 µM
- TGI [2]: > 100 µM
- TGI [3]: 44.9 µM
- TGI [4]: 26.6 µM
- TGI [5]: 17.1 µM
- TGI [6]: 28.7 µM
- TGI [7]: 51.1 µM
- TGI [8]: 27.9 µM
- TGI [9]: 17.4 µM
- TGI [10]: 31.3 µM

SMILES: O=C1C2C3C=C4c5ccccc5N(c5ccccc5)C4(C2C(=O)N1c1ccc([N+](=O)[O-])cc1)[C@H]1C(=O)N(c2ccc([N+](=O)[O-])cc2)C(=O)[C@@H]31 (some centres undefined)
- TGI [1]: > 100 µM
- TGI [2]: > 100 µM
- TGI [3]: > 100 µM
- TGI [4]: > 100 µM
- TGI [5]: > 100 µM
- TGI [6]: > 100 µM
- TGI [7]: > 100 µM
- TGI [8]: > 100 µM
- TGI [9]: > 100 µM
- TGI [10]: > 100 µM

SMILES: COc1ccc(-c2[nH]c3ccc(OC)cc3c2/C=C(\C#N)S(=O)(=O)c2ccccc2)cc1
- GI50 [1]: 1.79 µM
- TGI [1]: > 100 µM
- GI50 [2]: 4.22 µM
- TGI [2]: > 100 µM
- GI50 [3]: 0.435 µM
- TGI [3]: > 32.2 µM
- GI50 [4]: 3.13 µM
- TGI [4]: > 82.2 µM
- GI50 [5]: 1.58 µM
- TGI [5]: > 20.7 µM
- GI50 [6]: 2.09 µM
- TGI [6]: > 100 µM
- GI50 [7]: 1.28 µM
- TGI [7]: 6.64 µM
- GI50 [8]: 0.319 µM
- TGI [8]: 2.39 µM
- GI50 [9]: 7.06 µM
- TGI [9]: > 46.5 µM
- GI50 [10]: 2.69 µM
- TGI [10]: > 27.6 µM

SMILES: Nc1nc(Nc2cccnc2)sc1C(=O)c1ccccc1F
- GI50 [1]: 2.53 µM
- TGI [1]: > 100 µM
- GI50 [2]: 1.94 µM
- TGI [2]: 6.86 µM
- GI50 [3]: 2.96 µM
- TGI [3]: 31.2 µM
- GI50 [4]: 3.29 µM
- TGI [4]: 12.4 µM
- GI50 [5]: 8.26 µM
- TGI [5]: > 64.1 µM
- GI50 [6]: 8.74 µM
- TGI [6]: 76.6 µM
- GI50 [7]: 3.06 µM
- TGI [7]: 7.35 µM
- GI50 [8]: 0.349 µM
- TGI [8]: 3.32 µM
- GI50 [9]: 4.29 µM
- TGI [9]: 40.1 µM
- GI50 [10]: 2.45 µM
- TGI [10]: > 26.5 µM

SMILES: CNC(=S)/N=C(\N)N(C)C
- TGI [1]: > 100 µM
- TGI [2]: > 100 µM
- TGI [3]: > 100 µM
- TGI [4]: > 100 µM
- TGI [5]: > 100 µM
- TGI [6]: > 10 µM
- TGI [7]: > 100 µM
- TGI [8]: > 100 µM
- TGI [9]: > 10 µM
- TGI [10]: > 100 µM

SMILES: CCc1nc2cc(F)c(/C=C/C(=O)NO)cc2c(=O)n1CCc1ccccc1
- GI50 [1]: 0.343 µM
- TGI [1]: 2.56 µM
- GI50 [2]: 0.305 µM
- TGI [2]: 3.12 µM
- GI50 [3]: 0.343 µM
- TGI [3]: 12.1 µM
- GI50 [4]: 0.216 µM
- TGI [4]: 0.907 µM
- GI50 [5]: 0.171 µM
- TGI [5]: 0.392 µM
- GI50 [6]: 0.314 µM
- TGI [6]: 14.9 µM
- GI50 [7]: 0.387 µM
- TGI [7]: 19.9 µM
- GI50 [8]: 0.256 µM
- TGI [8]: 0.701 µM
- GI50 [9]: 0.216 µM
- TGI [9]: 0.72 µM
- GI50 [10]: 0.2 µM
- TGI [10]: 0.648 µM

SMILES: N#Cc1cc(-c2cc3ccccc3o2)oc1N
- GI50 [1]: 3 µM
- TGI [1]: 11.1 µM
- GI50 [2]: 1.65 µM
- TGI [2]: 5.48 µM
- GI50 [3]: 3.35 µM
- TGI [3]: 11.3 µM
- GI50 [4]: 2.45 µM
- TGI [4]: 6.98 µM
- GI50 [5]: 2.41 µM
- TGI [5]: 12.6 µM
- GI50 [6]: 3.23 µM
- TGI [6]: 40.6 µM
- GI50 [7]: 1.46 µM
- TGI [7]: 5.04 µM
- GI50 [8]: 1.52 µM
- TGI [8]: 3.78 µM
- GI50 [9]: 3.8 µM
- TGI [9]: 74.1 µM
- GI50 [10]: 3.72 µM
- TGI [10]: 18.2 µM

SMILES: Cc1ccc(NC(=O)c2cccc(C(C)(C)C#N)c2)cc1Nc1ccc2ncn(C)c(=O)c2c1
- GI50 [1]: 1.73 µM
- TGI [1]: > 100 µM
- GI50 [2]: 2.96 µM
- TGI [2]: > 100 µM
- GI50 [3]: 0.032 µM
- TGI [3]: > 100 µM
- TGI [4]: 0.0434 µM
- GI50 [5]: 3.88 µM
- TGI [5]: > 100 µM
- GI50 [6]: 3.9 µM
- TGI [6]: > 100 µM
- GI50 [7]: 3.25 µM
- TGI [7]: > 100 µM
- GI50 [8]: 1.26 µM
- TGI [8]: 20 µM
- GI50 [9]: 0.0405 µM
- TGI [9]: > 100 µM
- GI50 [10]: 0.475 µM
- TGI [10]: > 100 µM
